Test results as given in patent publication US11566007B2, “Ras inhibitors” (Revolution Medicines, Inc., priority 2019, dated 2023).
pEC50, pIC50: −log10 of the molar value. Where “and” joins values, the source holds several entries; their conditions need not be identical. Identical values can stand only once.

Key:
[1] = target: KRAS WT (Homo sapiens (Human), UniProt P01116+P62937); experiment: Ras-Raf (BRAF RBD) disruption / FRET / MOA assay, KRAS WT; format: biochemical; settings: read-out: IC50* KRAS WT FRET data
How it was run: (§1)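 TR-FRET read-out: a drop in ratio relative to DMSO wells marks disruption of the Ras:RAF complex, reported as IC50. Compounds (3-fold series, 10 points, top 30 μM final) incubated 3 h at 25° C before Eu-anti-His 10 nM and APC-anti-GST 50 nM, 1.5 h more.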

[2] = target: KRAS G12V (Homo sapiens (Human), UniProt P01116+P62937, G12V); experiment: Ras-Raf (BRAF RBD) disruption / FRET / MOA assay, KRAS G12V; format: biochemical; settings: read-out: IC50* KRAS G12V FRET data
How it was run: as §1

[3] = target: KRAS G13D (Homo sapiens (Human), UniProt P01116+P62937, G13D); experiment: Ras-Raf (BRAF RBD) disruption / FRET / MOA assay, KRAS G13D; format: biochemical; settings: read-out: IC50* KRAS G13D FRET data
Protocol: (§2) The purpose of this biochemical assay is to measure the ability of test compounds to facilitate ternary complex formation between a nucleotide-loaded Ras isoform and cyclophilin A; the resulting ternary complex disrupts binding to a BRAF^RBD construct, inhibiting Ras signaling through a RAF effector.
(§3) Compound is present in plate wells as a 10-point 3-fold dilution series starting at a final concentration of 30 μM. After incubation at 25° C. for 3 hours, a mixture of Anti-His Eu-W1024 and anti-GST allophycocyanin is then added to assay sample wells at final concentrations of 10 nM and 50 nM, respectively, and the reaction incubated for an additional 1.5 hours. […] Compounds that facilitate disruption of a Ras:RAF complex are identified as those eliciting a decrease in the TR-FRET ratio relative to DMSO control wells.
This protocol may also be executed substituting other Ras proteins or nucleotides.
The purpose of this biochemical assay was to measure the ability of test compounds to facilitate ternary complex formation between a nucleotide-loaded K-Ras isoform and Cyclophilin A; the resulting ternary complex disrupts binding to a BRAF^RBD construct, inhibiting K-Ras signaling through a RAF effector. Data is reported as IC50 values.
as §3, with “Compound was” for “Compound is”, “allophycocyanin was” for “allophycocyanin is”, “a K-Ras:RAF” for “a Ras:RAF”, “complex were” for “complex are”

[4] = tested on: NCI-H358 cells (K-Ras G12C); experiment: Potency assay: pERK in NCI-H358 cells; format: cell-based, human; settings: Homo sapiens, NCI-H358; H358 KRAS G12C; read-out: pERK EC50
How it was run: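 pERK decrease read by AlphaLISA SureFire p-ERK1/2 or In-Cell Western after 4 h compound exposure at 37 °C, 5% CO2.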

[5] = target: K-Ras G13C (Homo sapiens (Human), UniProt P01116+P62937, G13C); experiment: Ras-Raf (BRAF RBD) disruption / FRET / MOA assay, KRAS G13C; format: biochemical; settings: KRAS G13C; Ras-Raf disruption/FRET/MOA assay; read-out: IC50* KRAS G13C FRET data
How it was run: as §1

[6] = target: KRAS G12D (Homo sapiens (Human), UniProt P01116+P62937, G12D); experiment: Ras-Raf (BRAF RBD) disruption / FRET / MOA assay, KRAS G12D; format: biochemical; settings: Ras-Raf disruption/FRET/MOA assay; class symbols; read-out: KRAS G12D FRET data IC50
How it was run: as §1

[7] = target: NRAS G12C (Homo sapiens (Human), UniProt P01111+P62937, G12C); experiment: Ras-Raf (BRAF RBD) disruption / FRET / MOA assay, NRAS G12C; format: biochemical; settings: read-out: IC50* NRAS G12C FRET data
Protocol: as §2, §3
This protocol may also be executed substituting other Ras proteins or nucleotides. […]

[8] = target: KRAS G12S (Homo sapiens (Human), UniProt P01116+P62937, G12S); experiment: Ras-Raf (BRAF RBD) disruption / FRET / MOA assay, KRAS G12S; format: biochemical; settings: Ras-Raf disruption/FRET/MOA assay; class symbols; read-out: KRAS G12S FRET data IC50
How it was run: as §1

[9] = target: K-Ras G12C (Homo sapiens (Human), UniProt P01116+P62937, G12C); experiment: Ras-Raf (BRAF RBD) disruption / FRET / MOA assay, KRAS G12C; format: biochemical; settings: KRAS G12C; Ras-Raf disruption/FRET/MOA assay; read-out: IC50* KRAS G12C FRET data
How it was run: as §1

Sequence of KRAS G12S (P01116-2 other isoform, or with tags, fused parts or gaps G12S): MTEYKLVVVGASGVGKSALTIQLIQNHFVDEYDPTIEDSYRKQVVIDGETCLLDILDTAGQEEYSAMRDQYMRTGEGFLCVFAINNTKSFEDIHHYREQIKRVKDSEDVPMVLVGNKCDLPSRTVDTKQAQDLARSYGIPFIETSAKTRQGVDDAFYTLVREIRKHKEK
Sequence of KRAS G12S (P62937 whole entry): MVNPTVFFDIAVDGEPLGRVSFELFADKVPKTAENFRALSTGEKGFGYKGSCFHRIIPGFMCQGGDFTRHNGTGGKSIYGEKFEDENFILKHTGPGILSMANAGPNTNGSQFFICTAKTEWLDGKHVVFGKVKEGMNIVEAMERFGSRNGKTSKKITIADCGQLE
Sequence of KRAS G12D (P01116-2 other isoform, or with tags, fused parts or gaps G12D): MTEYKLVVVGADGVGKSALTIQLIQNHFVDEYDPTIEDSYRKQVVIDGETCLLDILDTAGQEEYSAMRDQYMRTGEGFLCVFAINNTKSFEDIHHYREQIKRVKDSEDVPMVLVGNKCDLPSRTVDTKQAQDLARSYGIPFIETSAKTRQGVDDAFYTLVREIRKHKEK
Sequence of KRAS G12D (P62937 whole entry): as the sequence (P62937 whole entry) above
Sequence of KRAS WT (P01116-2 other isoform, or with tags, fused parts or gaps): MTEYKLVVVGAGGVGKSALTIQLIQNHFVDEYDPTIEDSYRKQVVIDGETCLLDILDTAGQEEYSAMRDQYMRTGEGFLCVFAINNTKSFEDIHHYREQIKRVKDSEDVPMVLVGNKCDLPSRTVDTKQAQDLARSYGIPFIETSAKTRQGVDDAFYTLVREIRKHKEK
Sequence of KRAS WT (P62937 whole entry): as the sequence (P62937 whole entry) above
Sequence of KRAS G12V (P01116-2 other isoform, or with tags, fused parts or gaps G12V): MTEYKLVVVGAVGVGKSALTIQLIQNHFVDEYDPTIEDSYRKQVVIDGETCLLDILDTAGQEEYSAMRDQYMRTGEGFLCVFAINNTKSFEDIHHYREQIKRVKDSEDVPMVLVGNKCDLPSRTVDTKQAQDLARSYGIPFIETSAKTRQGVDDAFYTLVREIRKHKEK
Sequence of KRAS G12V (P62937 whole entry): as the sequence (P62937 whole entry) above
Sequence of KRAS G13D (P01116-2 other isoform, or with tags, fused parts or gaps G13D): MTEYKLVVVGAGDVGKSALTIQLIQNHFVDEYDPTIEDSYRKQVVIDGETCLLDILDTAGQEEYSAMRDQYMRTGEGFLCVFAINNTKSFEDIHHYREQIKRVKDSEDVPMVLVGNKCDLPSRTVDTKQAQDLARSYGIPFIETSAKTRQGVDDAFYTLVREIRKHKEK
Sequence of KRAS G13D (P62937 whole entry, canonical isoform): as the sequence (P62937 whole entry) above
Sequence of NRAS G12C (P01111 whole entry G12C): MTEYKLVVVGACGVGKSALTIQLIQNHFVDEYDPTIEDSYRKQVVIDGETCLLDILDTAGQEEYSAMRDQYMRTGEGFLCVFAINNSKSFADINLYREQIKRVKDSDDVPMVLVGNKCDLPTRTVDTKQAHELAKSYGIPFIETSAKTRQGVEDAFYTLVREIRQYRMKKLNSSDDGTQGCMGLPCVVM
Sequence of NRAS G12C (P62937 whole entry): as the sequence (P62937 whole entry) above
Sequence of K-Ras G13C (P01116-2 other isoform, or with tags, fused parts or gaps G13C): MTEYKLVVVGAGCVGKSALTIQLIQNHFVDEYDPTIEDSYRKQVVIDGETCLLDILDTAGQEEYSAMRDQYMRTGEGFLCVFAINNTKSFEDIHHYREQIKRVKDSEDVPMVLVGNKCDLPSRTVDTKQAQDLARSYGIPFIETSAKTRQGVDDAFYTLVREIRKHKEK
Sequence of K-Ras G13C (P62937 whole entry): as the sequence (P62937 whole entry) above
Sequence of K-Ras G12C (P01116-2 other isoform, or with tags, fused parts or gaps G12C): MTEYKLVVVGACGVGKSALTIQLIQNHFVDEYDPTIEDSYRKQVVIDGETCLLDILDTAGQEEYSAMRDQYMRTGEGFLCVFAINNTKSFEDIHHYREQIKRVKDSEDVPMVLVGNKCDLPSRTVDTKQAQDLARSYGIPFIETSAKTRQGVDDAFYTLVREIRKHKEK
Sequence of K-Ras G12C (P62937 whole entry): as the sequence (P62937 whole entry) above

| SMILES | pIC50 [1] | pIC50 [2] | pIC50 [3] | pEC50 [4] | pIC50 [5] | pIC50 [6] | pIC50 [7] | pIC50 [8] | pIC50 [9] | IC50 [5] | IC50 [7] | IC50 [9] | IC50 [1] | IC50 [2] | IC50 [8] |
| --- | --- | --- | --- | --- | --- | --- | --- | --- | --- | --- | --- | --- | --- | --- | --- |
| CCn1c(-c2cccnc2[C@H](C)OC)c2c3cc(ccc31)-c1cc(O)cc(c1)C[C@H](NC(=O)[C@H](C(C)C)N(C)C(=O)C1CCN(C(=O)/C=C/CN(C)C)CC1)C(=O)N1CCC[C@H](N1)C(=O)OCC(C)(C)C2 (atropisomer, axis not shown) [Example A261] | 5.00 to 6.00 and 7.00 to 8.00 | 6.00 to 7.00 and 5.00 to 6.00 | 6.00 to 7.00 and 7.00 to 8.00 | > 5.30 | 7.00 to 8.00 and 6.00 to 7.00 | 5.00 to 6.00 and 6.00 to 7.00 | 7.00 to 8.00 and 6.00 to 7.00 | 6.00 to 7.00 | 7.00 to 8.00 and 6.00 to 7.00 |  |  |  |  |  |  |
| C=CC(=O)N1CC[C@H](C(=O)N(C)[C@H](C(=O)N[C@H]2Cc3nc(cs3)-c3ccc4c(c3)c(c(-c3cccnc3[C@H](C)OC)n4CC)CC(C)(C)COC(=O)[C@@H]3CCCN(N3)C2=O)C(C)C)C1 (atropisomer, axis not shown) [Example A279] | < 5.00 | < 5.00 | < 5.00 | > 5.30 |  | < 5.00 |  | < 5.00 |  | > 10 µM (2×) and 1 µM to 10 µM | 1 µM to 10 µM and > 10 µM (2×) | 1 µM to 10 µM and > 10 µM (2×) |  |  |  |
| C=CS(=O)(=O)N1CC[C@H](C(=O)N(C)[C@H](C(=O)N[C@H]2Cc3nc(cs3)-c3ccc4c(c3)c(c(-c3cccnc3[C@H](C)OC)n4CC)CC(C)(C)COC(=O)[C@@H]3CCCN(N3)C2=O)C(C)C)C1 (atropisomer, axis not shown) [Example A283] |  |  | < 5.00 | > 5.30 |  | < 5.00 | 6.00 to 7.00 and 5.00 to 6.00 and < 5.00 |  |  | 10 nM to 100 nM and 1 µM to 10 µM (2×) |  | 10 nM to 100 nM and 1 µM to 10 µM (2×) | 1 µM to 10 µM and > 10 µM (2×) | 1 µM to 10 µM and > 10 µM (2×) | 1 µM to 10 µM and > 10 µM (2×) |
| C=CC(=O)N1CC2(CCN([C@H](C(=O)N[C@H]3Cc4cc(O)cc(c4)-c4ccc5c(c4)c(c(-c4cccnc4[C@H](C)OC)n5CC)CC(C)(C)COC(=O)[C@@H]4CCCN(N4)C3=O)C(C)C)C2=O)C1 (atropisomer, axis not shown) [Example A294] | 7.00 to 8.00 | 6.00 to 7.00 | 7.00 to 8.00 | > 5.30 | > 8.00 | 6.00 to 7.00 | > 8.00 | 7.00 to 8.00 | > 8.00 |  |  |  |  |  |  |
| CCn1c(-c2cccnc2[C@H](C)OC)c2c3cc(ccc31)-c1cccc(c1)C[C@H](NC(=O)[C@H](C(C)C)N(C)C(=O)[C@H]1CCN(C(=O)C#CC(C)(C)N3CCC(F)(F)C3)C1)C(=O)N1CCC[C@H](N1)C(=O)OCC(C)(C)C2 (atropisomer, axis not shown) [Example A325] | < 5.00 | 5.00 to 6.00 | < 5.00 | > 5.30 | 5.00 to 6.00 | < 5.00 | 5.00 to 6.00 | 5.00 to 6.00 | 5.00 to 6.00 |  |  |  |  |  |  |
| CCn1c(-c2cccnc2[C@H](C)OC)c2c3cc(ccc31)-c1cc(cc(C(F)F)c1)C[C@H](NC(=O)[C@H](C(C)C)N(C)C(=O)[C@H]1CCN(C(=O)C#CC(C)(C)N3CCC3)C1)C(=O)N1CCC[C@H](N1)C(=O)OCC(C)(C)C2 (atropisomer, axis not shown) [Example A466] | 5.00 to 6.00 | 5.00 to 6.00 | 5.00 to 6.00 | > 5.30 | 6.00 to 7.00 | < 5.00 | 7.00 to 8.00 | 5.00 to 6.00 | 7.00 to 8.00 |  |  |  |  |  |  |
| C=CC(=O)N1CC[C@@H](C(=O)N(C)[C@H](C(=O)N[C@H]2Cc3cccc(c3)-c3ccc4c(c3)c(c(-c3cccnc3[C@H](C)OC)n4CC)CC(C)(C)COC(=O)[C@@H]3CCCN(N3)C2=O)C(C)C)C1 (atropisomer, axis not shown) [Example A488] | 5.00 to 6.00 | 5.00 to 6.00 | 5.00 to 6.00 | > 5.30 | 6.00 to 7.00 | 5.00 to 6.00 | 6.00 to 7.00 | 5.00 to 6.00 | 6.00 to 7.00 |  |  |  |  |  |  |
